Assay results from paper PMC7619385 (ACS infectious diseases, 2025).
Like-named read-outs stand apart in the source and are kept apart here.

What was measured:
LmxCLK1 = target: T1, LmxCLK1 (Leishmania mexicana, UniProt E9AMP2); experiment: biochemical; format: binding
T1 sequence (E9AMP2 1-422): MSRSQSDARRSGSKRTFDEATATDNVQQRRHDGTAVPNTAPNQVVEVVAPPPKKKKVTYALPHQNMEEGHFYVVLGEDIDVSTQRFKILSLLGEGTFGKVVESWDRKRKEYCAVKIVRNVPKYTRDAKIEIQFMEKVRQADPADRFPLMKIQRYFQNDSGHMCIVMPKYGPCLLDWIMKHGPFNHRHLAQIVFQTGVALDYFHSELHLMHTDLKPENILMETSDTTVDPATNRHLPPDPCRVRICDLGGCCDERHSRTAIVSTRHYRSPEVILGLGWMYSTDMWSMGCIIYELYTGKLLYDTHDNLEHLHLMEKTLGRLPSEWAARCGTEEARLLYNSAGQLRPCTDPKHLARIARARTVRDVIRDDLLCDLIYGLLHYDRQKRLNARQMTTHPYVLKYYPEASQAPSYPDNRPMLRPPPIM

NLuc::LmxCLK1 = NLuc::LmxCLK1 (Leishmania mexicana, UniProt E9AMP2); experiment: cell-based; format: cell-based; details: for Target occupancy Run 1 / Target occupancy Run 2 / Target occupancy Average: 10 µM compound, tracer SV366, promastigotes; for Target occupancy Average: mean of two experiments
Description: All compounds were tested at a fixed concentration of 10 µM to enable direct comparison of their target occupancy in live cells.
Serially diluted probes (5 µL) were added to 85 µL of cells in culture media or 85 µL of purified protein. Final well volumes were adjusted to 100 µL with sterile Opti-MEM™ I Reduced Serum Medium (Thermo-Scientific) – for wells containing cells; or Kinase Buffer - for wells containing purified protein. For tracer displacement assays, samples were prepared as above, but final volume was brought to 100 µL by addition of vehicle or serially-diluted test compounds. Final DMSO concentration in these assays was 1%. […] Light emissions at 460+10 nm (BRET donor) and at 610+20 nm (BRET acceptor) were sequentially recorded (integration time = 0.5 s, gain = 3600) using a luminometer (BMG LABTECH Clariostar or Biotek Synergy HT). BRET values are reported in milli-BRET (mBRET) units (mBU), obtained by dividing the acceptor luminescence by the donor luminescence and multiplying the result by a factor of 1,000. BRET values were converted to blank-corrected probe occupancies (%) according to equation [1]: (1) Probeoccupancy(%)=X−Z/Y−Z×100 where X = mBRET value in the presence of the test compound and the probe, Y = mBRET value in the presence of probe only, and Z = mBRET value in the absence of probe and test compound. […]

[1] = DSF, 10 µM compound, 2 µM LmxCLK1, Run 1
[2] = DSF, 10 µM compound, 2 µM LmxCLK1, Run 2
[3] = DSF, 10 µM compound, 2 µM LmxCLK1, mean of two runs
[4] = DSF, 10 µM compound, 2 µM LmxCLK1, Run 1, read-out: ΔTm Run 1
[5] = DSF, 10 µM compound, 2 µM LmxCLK1, Run 2, read-out: ΔTm Run 2
[6] = DSF, 10 µM compound, 2 µM LmxCLK1, mean of two runs, read-out: ΔTm Average
[7] = read-out: Target occupancy Average
[8] = read-out: Target occupancy Run 1
[9] = read-out: Target occupancy Run 2

| Compound | ΔTm Run 1 (LmxCLK1; [1]) [°C] | ΔTm Run 2 (LmxCLK1; [2]) [°C] | ΔTm Average (LmxCLK1; [3]) [°C] | Target occupancy Run 1 (NLuc::LmxCLK1) [%] | Target occupancy Run 2 (NLuc::LmxCLK1) [%] | Target occupancy Average (NLuc::LmxCLK1) [%] | ΔTm at 10 µM (LmxCLK1; [4]) [°C] | ΔTm at 10 µM (LmxCLK1; [5]) [°C] | ΔTm at 10 µM (LmxCLK1; [6]) [°C] | receptor occupancy at 10 µM (NLuc::LmxCLK1; [7]) [%] | receptor occupancy at 10 µM (NLuc::LmxCLK1; [8]) [%] | receptor occupancy at 10 µM (NLuc::LmxCLK1; [9]) [%] | ΔTm Average (LmxCLK1) | ΔTm Run 1 (LmxCLK1) | ΔTm Run 2 (LmxCLK1) |
| --- | --- | --- | --- | --- | --- | --- | --- | --- | --- | --- | --- | --- | --- | --- | --- |
| N#C/C(=C/c1ccc(O)c(O)c1)C(=O)NCc1ccccc1 [AG-490 (Tyrphostin B42)] | 0.1 | 0.2 | 0.1 | -25.0 | -10.6 | -17.8 | – | – | – | – | – | – | – | – | – |
| COc1cccc(-c2cc(=O)c3ccccc3o2)c1N [PD98059] | 0.0 | -0.2 | -0.1 | -16.6 | -0.7 | -8.6 | – | – | – | – | – | – | – | – | – |
| CN(C)Cc1cccc(N/C(=C2\C(=O)Nc3cc(C(N)=O)ccc32)c2ccccc2)c1 [BIX 02188] | – | – | – | – | – | – | 0.1 | -0.2 | 0 | -6.5 | 4.1 | -17 | – | – | – |
| C#Cc1cccc(Nc2ncnc3cc(OCCOC)c(OCCO)cc23)c1 [OSI-420] | 0.2 | 0.1 | 0.1 | -6.8 | 3.7 | -1.5 | – | – | – | – | – | – | – | – | – |
| CN1CCCN(C(=O)c2cccc(-c3ccc(/C=C4/C(=O)Nc5ccc(Cl)cc54)o3)c2)CC1.Cl [CX-6258 HCl] | 0.1 | -0.4 | -0.1 | -0.5 | -26.8 | -13.6 | – | – | – | – | – | – | – | – | – |
| O=C(NCc1ccccc1)c1csc(Nc2ccncn2)n1 [Thiazovivin] | 0.3 | 0.0 | 0.2 | -3.6 | 1.5 | -1.1 | – | – | – | – | – | – | – | – | – |
| CC(C)NC[C@@H](C(=O)N1CCN(c2ncnc3c2[C@H](C)C[C@H]3O)CC1)c1ccc(Cl)cc1 [GDC-0068] | – | – | – | – | – | – | 0.4 | 0 | 0.2 | 0.3 | 6 | -5.5 | – | – | – |
| CNC(=O)c1ccccc1Nc1nc(Nc2ccc(N3CCOCC3)cc2OC)ncc1Cl [TAE226 (NVP-TAE226)] | 0.2 | -0.1 | 0.0 | -26.7 | -0.7 | -13.7 | – | – | – | – | – | – | – | – | – |
| C#Cc1cccc(Nc2ncnc3cc(OCCOC)c(OCCOC)cc23)c1.Cl [Erlotinib HCl (OSI-744)] | 0.1 | 0.1 | 0.1 | -0.1 | -7.3 | -3.7 | – | – | – | – | – | – | – | – | – |
| Cn1cc(C2=C(c3ccc(Cl)cc3Cl)C(=O)NC2=O)c2ccccc21 [SB216763] | – | – | – | – | – | – | 0.1 | -0.1 | 0 | -4.4 | 0.9 | -9.6 | – | – | – |
| COc1cc(Nc2ncc(F)c(Nc3ccc4c(n3)N(COP(=O)(O)O)C(=O)C(C)(C)O4)n2)cc(OC)c1OC [Fostamatinib (R788)] | 0.2 | 0.2 | 0.2 | 0.9 | -17.9 | -8.5 | – | – | – | – | – | – | – | – | – |
| Cc1c(Cn2c(C)nc3c(C(=O)O)cc(N4CCOCC4)cc32)cccc1C(F)(F)F [GSK2636771] | – | – | – | – | – | – | 0.2 | 0.1 | 0.1 | -2.2 | 2.9 | -7.3 | – | – | – |
| O=C(c1ccc(Nc2nccc(-c3cc4ccccc4s3)n2)cc1)N1CCC(N2CCCC2)CC1 [IKK-16 (IKK Inhibitor VII)] | 1.9 | 1.6 | 1.8 | 10.2 | -10.2 | 0.0 | – | – | – | – | – | – | – | – | – |
| CCS(=O)(=O)c1cccc(-c2cc(C(=O)NC3CCN(C)CC3)c(C)c3[nH]c4ncc(C)cc4c23)c1 [TAK-901] | – | – | – | – | – | – | 1.5 | 1.1 | 1.3 | -5.9 | -2.7 | -9.1 | – | – | – |
| COc1cc(Nc2ncc(F)c(Nc3ccc4c(n3)NC(=O)C(C)(C)O4)n2)cc(OC)c1OC [R406] | – | – | – | 6.2 | -5.8 | 0.2 | – | – | – | – | – | – | 0.4 °C | 0.4 °C | 0.3 °C |
| N#CC1(c2ccc(NC(=O)c3cccnc3NCc3ccncc3)cc2)CCCC1 [Apatinib] | – | – | – | – | – | – | -0.2 | -0.4 | -0.3 | -8.5 | -9.2 | -7.8 | – | – | – |
| c1cncc(CN2CCC(n3ncc4c(N5CCOCC5)nc(-c5ccc6[nH]ccc6c5)nc43)CC2)c1 [WAY-600] | 0.0 | -0.4 | -0.2 | 4.0 | -10.8 | -3.4 | – | – | – | – | – | – | – | – | – |
| CN(C)CCCn1cc(C2=C(c3c[nH]c4ccccc34)C(=O)NC2=O)c2ccccc21 [GF109203X] | – | – | – | -5.7 | -5.0 | -5.4 | – | – | – | – | – | – | 0.2 °C | 0.3 °C | 0.1 °C |
| Cc1nc(Nc2ncc(C(=O)Nc3c(C)cccc3Cl)s2)cc(N2CCN(CCO)CC2)n1 [Dasatinib] | – | – | – | – | – | – | -0.1 | -0.2 | -0.1 | -14.6 | 1.5 | -30.7 | – | – | – |
| COC[C@H]1OC(=O)c2coc3c2[C@@]1(C)C1=C(C3=O)[C@@H]2CCC(=O)[C@@]2(C)C[C@H]1OC(C)=O [Wortmannin] | – | – | – | – | – | – | 0 | -0.3 | -0.2 | -3.6 | -2.4 | -4.8 | – | – | – |
| Cn1cnc(N)c2ncnc1-2 [3-Methyladenine] | – | – | – | – | – | – | 0.2 | 0 | 0.1 | -2.2 | 2.8 | -7.1 | – | – | – |
| UNC-AA-1-0013 (AAK1) | – | – | – | 3.7 | -11.6 | -4.0 | – | – | – | – | – | – | -0.2 | -0.2 | -0.3 |
| C=CS(=O)(=O)NC1CCN(C(=O)CNc2cc(I)c(Cl)cc2OC)CC1 [K-Ras(G12C) inhibitor 9] | 0.3 | -0.6 | -0.1 | -21.1 | -10.0 | -15.5 | – | – | – | – | – | – | – | – | – |
| Cc1[nH]c2ccccc2c1C1=C(NCCc2ccc(F)cc2)C(=O)N(C)C1=O [IM-12] | – | – | – | -0.3 | -14.5 | -7.4 | – | – | – | – | – | – | -0.2 | -0.2 | -0.3 |
| Cc1ccc2nc(NCCN)c3ncc(C)n3c2c1 [BMS-345541] | – | – | – | – | – | – | -0.1 | -0.3 | -0.2 | -1.1 | 7.2 | -9.4 | – | – | – |
| C=CC(=O)Nc1cccc(Nc2nc(Nc3ccc(Oc4ccnc(C(=O)NC)c4)cc3)ncc2F)c1 [CNX-774] | -0.3 | 0.0 | -0.2 | -4.4 | -9.3 | -6.8 | – | – | – | – | – | – | – | – | – |
| COc1cc(N2CCC(N)CC2)ccc1Nc1ncc(Cl)c(-c2c[nH]c3ccccc23)n1 [AZD3463] | 0.6 | 0.3 | 0.4 | 8.0 | -12.9 | -2.4 | – | – | – | – | – | – | – | – | – |
